Source: PubChem BioAssay AID1963835 (Molecular Pharmacology Branch, DTP, NCI, 2024)

System: 699152-130-R-J1-PDC complex spheroid viability
Assay: Anticancer human tumor 699152-130-R-J1-PDC patient-derived pancreatic carcinoma cell line growth inhibition [POLQ]
Conditions: for IC50: curve of first compound; for viability, T/C: stronger effect = lower value
How it was run: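 Growth inhibition in 3D: complex spheroids (tumor PDC, HUVEC, MSC) treated with POLQ inhibitor combinations; where Cmax unknown, highest tested concentration 10 microM, except SN-38 at 1 microM.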

[1] = second compound 0.0316 µM, first compound 0.0316 µM
[2] = second compound 0.0316 µM, first compound 0.1 µM
[3] = second compound 0.0316 µM, first compound 0.316 µM
[4] = second compound 0.0316 µM, first compound 1 µM
[5] = second compound 0.0316 µM, first compound 3.16 µM
[6] = second compound 0.0316 µM, first compound 10 µM
[7] = second compound 0.1 µM, first compound 0.0316 µM
[8] = second compound 0.1 µM, first compound 0.1 µM
[9] = second compound 0.1 µM, first compound 0.316 µM
[10] = second compound 0.1 µM, first compound 1 µM
[11] = second compound 0.1 µM, first compound 3.16 µM
[12] = second compound 0.1 µM, first compound 10 µM
[13] = second compound 0.316 µM, first compound 0.0316 µM
[14] = second compound 0.316 µM, first compound 0.1 µM
[15] = second compound 0.316 µM, first compound 0.316 µM
[16] = second compound 0.316 µM, first compound 1 µM
[17] = second compound 0.316 µM, first compound 3.16 µM
[18] = second compound 0.316 µM, first compound 10 µM
[19] = second compound 1 µM, first compound 0.0316 µM
[20] = second compound 1 µM, first compound 0.1 µM
[21] = second compound 1 µM, first compound 0.316 µM
[22] = second compound 1 µM, first compound 1 µM
[23] = second compound 1 µM, first compound 3.16 µM
[24] = second compound 1 µM, first compound 10 µM
[25] = second compound 3.16 µM, first compound 0.0316 µM
[26] = second compound 3.16 µM, first compound 0.1 µM
[27] = second compound 3.16 µM, first compound 0.316 µM
[28] = second compound 3.16 µM, first compound 1 µM
[29] = second compound 3.16 µM, first compound 3.16 µM
[30] = second compound 3.16 µM, first compound 10 µM
[31] = second compound 10 µM, first compound 0.0316 µM
[32] = second compound 10 µM, first compound 0.1 µM
[33] = second compound 10 µM, first compound 0.316 µM
[34] = second compound 10 µM, first compound 1 µM
[35] = second compound 10 µM, first compound 3.16 µM
[36] = second compound 10 µM, first compound 10 µM
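Further: spheroids exposed to agents for 7 days before viability reading.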
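Wherever viability, T/C is given: percent of DMSO vehicle control viability so 100% = vehicle and 0% = no viable signal.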

Compound `O=c1[nH]cc(F)c(=O)[nH]1` + Nc1ccc(C#CCN(C(=O)Cc2ncc(C(F)(F)F)cc2C(F)(F)F)c2ccc(F)cc2)nn1 has an IC50 (second compound 0.0316 µM) greater than 10 µM, an IC50 (second compound 0.1 µM) greater than 10 µM and an IC50 (second compound 0.316 µM) greater than 10 µM. It also gave an IC50 (second compound 1 µM) greater than 10 µM, an IC50 (second compound 3.16 µM) greater than 10 µM and an IC50 (second compound 10 µM) greater than 10 µM. For the same compound, the viability, T/C [1] was 105%, the viability, T/C [2] was 105% and the viability, T/C [3] was 99.3%. For the same compound, the viability, T/C [4] was 97.9%, the viability, T/C [5] was 98.1% and the viability, T/C [6] was 82.1%. It also gave a viability, T/C [7] of 100%, a viability, T/C [8] of 121% and a viability, T/C [9] of 104%. For the same compound, the viability, T/C [10] was 88.7%, the viability, T/C [11] was 97.3% and the viability, T/C [12] was 76.9%. The viability, T/C [13] was 108%, the viability, T/C [14] was 104% and the viability, T/C [15] was 103%. The viability, T/C [16] was 102%, the viability, T/C [17] was 97.5% and the viability, T/C [18] was 81.5%. It also gave a viability, T/C [19] of 113%, a viability, T/C [20] of 95.5% and a viability, T/C [21] of 97.6%. The viability, T/C [22] was 103%, the viability, T/C [23] was 87.8% and the viability, T/C [24] was 75.9%. The viability, T/C [25] was 111%, the viability, T/C [26] was 104% and the viability, T/C [27] was 93.9%. The viability, T/C [28] was 95.6%, the viability, T/C [29] was 104% and the viability, T/C [30] was 88.4%. The viability, T/C [31] was 116%, the viability, T/C [32] was 110% and the viability, T/C [33] was 119%. It also gave a viability, T/C [34] of 105%, a viability, T/C [35] of 105% and a viability, T/C [36] of 87.7%.

For `O=C(Nc1ccc(O)c(NS(=O)(=O)c2ccc(F)cc2)c1)c1ccc(-c2ccccc2)cc1` + Cc1cccc(N(C)C(=O)C2C(O)CCN2c2nc(C)cc(C(F)(F)F)c2C#N)c1, the IC50 (second compound 0.0316 µM) was greater than 10 µM, the IC50 (second compound 0.1 µM) was greater than 10 µM and the IC50 (second compound 0.316 µM) was greater than 10 µM. It also gave an IC50 (second compound 1 µM) greater than 10 µM, an IC50 (second compound 3.16 µM) greater than 10 µM and an IC50 (second compound 10 µM) greater than 10 µM. It also gave a viability, T/C [1] of 107%, a viability, T/C [2] of 91.1% and a viability, T/C [3] of 95.9%. It also gave a viability, T/C [4] of 102%, a viability, T/C [5] of 108% and a viability, T/C [6] of 78%. The viability, T/C [7] was 110%, the viability, T/C [8] was 103% and the viability, T/C [9] was 100%. The viability, T/C [10] was 106%, the viability, T/C [11] was 101% and the viability, T/C [12] was 78.7%. It also gave a viability, T/C [13] of 111%, a viability, T/C [14] of 104% and a viability, T/C [15] of 114%. The viability, T/C [16] was 105%, the viability, T/C [17] was 98.4% and the viability, T/C [18] was 69.3%. It also gave a viability, T/C [19] of 103%, a viability, T/C [20] of 110% and a viability, T/C [21] of 111%. It also gave a viability, T/C [22] of 97%, a viability, T/C [23] of 107% and a viability, T/C [24] of 83.3%. It also gave a viability, T/C [25] of 107%, a viability, T/C [26] of 112% and a viability, T/C [27] of 111%. For the same compound, the viability, T/C [28] was 102%, the viability, T/C [29] was 114% and the viability, T/C [30] was 81.2%. For the same compound, the viability, T/C [31] was 89.1%, the viability, T/C [32] was 96% and the viability, T/C [33] was 103%. The viability, T/C [34] was 95.1%, the viability, T/C [35] was 97% and the viability, T/C [36] was 63.7%.

For `CC(=O)O[C@H]1C(=O)[C@@]2(C)[C@H]([C@H](OC(=O)c3ccccc3)[C@]3(O)C[C@H](OC(=O)[C@H](O)[C@@H](NC(=O)c4ccccc4)c4ccccc4)C(C)=C1C3(C)C)[C@]1(OC(C)=O)CO[C@@H]1C[C@@H]2O` + COC1C(OC(N)=O)C(O)C(Oc2ccc3c(O)c(NC(=O)c4ccc(O)c(CC=C(C)C)c4)c(=O)oc3c2C)OC1(C)C, the IC50 (second compound 0.0316 µM) was greater than 3 µM, the IC50 (second compound 0.1 µM) was greater than 3 µM and the IC50 (second compound 0.316 µM) was greater than 3 µM. It also gave an IC50 (second compound 1 µM) greater than 3 µM, an IC50 (second compound 3.16 µM) greater than 3 µM and an IC50 (second compound 10 µM) greater than 3 µM. It also gave a viability, T/C (second compound 0.0316 µM, first compound 0.00949 µM) of 81.5%, a viability, T/C (second compound 0.0316 µM, first compound 0.03 µM) of 57% and a viability, T/C (second compound 0.0316 µM, first compound 0.0949 µM) of 57.1%. The viability, T/C (second compound 0.0316 µM, first compound 0.3 µM) was 60.7%, the viability, T/C (second compound 0.0316 µM, first compound 0.949 µM) was 70.2% and the viability, T/C (second compound 0.0316 µM, first compound 3 µM) was 63%. The viability, T/C (second compound 0.1 µM, first compound 0.00949 µM) was 87.9%, the viability, T/C (second compound 0.1 µM, first compound 0.03 µM) was 60.2% and the viability, T/C (second compound 0.1 µM, first compound 0.0949 µM) was 47.7%. It also gave a viability, T/C (second compound 0.1 µM, first compound 0.3 µM) of 62.5%, a viability, T/C (second compound 0.1 µM, first compound 0.949 µM) of 62.4% and a viability, T/C (second compound 0.1 µM, first compound 3 µM) of 74.5%. It also gave a viability, T/C (second compound 0.316 µM, first compound 0.00949 µM) of 90%, a viability, T/C (second compound 0.316 µM, first compound 0.03 µM) of 61.4% and a viability, T/C (second compound 0.316 µM, first compound 0.0949 µM) of 46.9%. For the same compound, the viability, T/C (second compound 0.316 µM, first compound 0.3 µM) was 53.2%, the viability, T/C (second compound 0.316 µM, first compound 0.949 µM) was 57.3% and the viability, T/C (second compound 0.316 µM, first compound 3 µM) was 58.1%. For the same compound, the viability, T/C (second compound 1 µM, first compound 0.00949 µM) was 77.2%, the viability, T/C (second compound 1 µM, first compound 0.03 µM) was 67.8% and the viability, T/C (second compound 1 µM, first compound 0.0949 µM) was 52.8%. For the same compound, the viability, T/C (second compound 1 µM, first compound 0.3 µM) was 57.7%, the viability, T/C (second compound 1 µM, first compound 0.949 µM) was 66% and the viability, T/C (second compound 1 µM, first compound 3 µM) was 68.7%. It also gave a viability, T/C (second compound 3.16 µM, first compound 0.00949 µM) of 91.9%, a viability, T/C (second compound 3.16 µM, first compound 0.03 µM) of 68.9% and a viability, T/C (second compound 3.16 µM, first compound 0.0949 µM) of 62.4%. It also gave a viability, T/C (second compound 3.16 µM, first compound 0.3 µM) of 55.5%, a viability, T/C (second compound 3.16 µM, first compound 0.949 µM) of 59.6% and a viability, T/C (second compound 3.16 µM, first compound 3 µM) of 73.1%. It also gave a viability, T/C (second compound 10 µM, first compound 0.00949 µM) of 84%, a viability, T/C (second compound 10 µM, first compound 0.03 µM) of 60.6% and a viability, T/C (second compound 10 µM, first compound 0.0949 µM) of 60.6%. It also gave a viability, T/C (second compound 10 µM, first compound 0.3 µM) of 61.7%, a viability, T/C (second compound 10 µM, first compound 0.949 µM) of 73.1% and a viability, T/C (second compound 10 µM, first compound 3 µM) of 67.9%.
